Results as given in patent publication US12077503B2, “Substituted cyclic amides and their use as herbicides” (FMC CORPORATION, priority 2015, dated 2024).

Experiments:
Assay type in all cases: in vivo
Kochia (Kochia scoparia) [1] = assay: Test A preemergence; details: Bassia scoparia, pre-emergence, 240 h, 0 to 100 scale (0 no effect, 100 complete control), read-out: Plant response rating, Kochia
How it was run: (§1)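 Treatment is preemergence as a directed soil spray after planting, or postemergence at the one- to two-leaf stage, with test chemical in a non-phytotoxic solvent mixture plus surfactant. Plants stay in the greenhouse about 10 d before visual injury scoring on a 0 to 100 scale versus untreated controls.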

[2] = test system: pigweed (Amaranthus retroflexus); assay: Test A preemergence; details: Amaranthus retroflexus, pre-emergence, 240 h, 0 to 100 scale (0 no effect, 100 complete control), read-out: Plant response rating, Pigweed
[3] = test system: giant foxtail (Setaria faberii); assay: Test A preemergence; details: Setaria faberi, pre-emergence, 240 h, 0 to 100 scale (0 no effect, 100 complete control), read-out: Plant response rating, Foxtail, Giant
How it was run: as §1

[4] = test system: ryegrass, Italian (Italian ryegrass, Lolium multiflorum); assay: Test A preemergence; details: Lolium multiflorum, pre-emergence, 240 h, 0 to 100 scale (0 no effect, 100 complete control), read-out: Plant response rating, Ryegrass, Italian
How it was run: as §1

[5] = test system: ragweed (common ragweed, Ambrosia elatior); assay: Test A preemergence; details: Ambrosia artemisiifolia, pre-emergence, 240 h, 0 to 100 scale (0 no effect, 100 complete control), read-out: Plant response rating, Ragweed
How it was run: as §1

[6] = test system: barnyardgrass (Echinochloa crus-galli); assay: Test A preemergence; details: Echinochloa crus-galli, pre-emergence, 240 h, 0 to 100 scale (0 no effect, 100 complete control), read-out: Plant response rating, Barnyardgrass
How it was run: as §1

rice (Oryra sativa) = assay: Test B flooded paddy test; details: Oryza sativa, 360 h, Flood, 250 g ai/ha; visually evaluated after 13 to 15 d; read-out: Plant response rating, Rice (0 to 100 scale where 0 is no effect and 100 is complete control)
How it was run: (§2)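 Percent control, visually estimated after 13–15 d in the greenhouse on a 0–100 basis, compares treated pots with untreated ones; compound was put into paddy water 3 cm above the soil when plants had two leaves.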

[7] = test system: sedge, umbrella (small-flower umbrella sedge, Cyperus difformis); assay: Test B flooded paddy test; details: Cyperus difformis, 360 h, Flood, 250 g ai/ha; visually evaluated after 13 to 15 d; read-out: Plant response rating, Sedge, Umbrella (0 to 100 scale where 0 is no effect and 100 is complete control)
How it was run: as §2

[8] = test system: barnyardgrass (Echinochloa crus-galli); assay: Test B flooded paddy test; details: Echinochloa crus-galli, 360 h, Flood, 250 g ai/ha; visually evaluated after 13 to 15 d; read-out: Plant response rating, Barnyardgrass (0 to 100 scale where 0 is no effect and 100 is complete control)
How it was run: as §2

[9] = test system: ducksalad (Heteranthera limosa); assay: Test B flooded paddy test; details: Heteranthera limosa, 360 h, Flood, 250 g ai/ha; visually evaluated after 13 to 15 d; read-out: Plant response rating, Ducksalad (0 to 100 scale where 0 is no effect and 100 is complete control)
How it was run: as §2

Kochia (Kochia scoparia) [10] = assay: Test A postemergence; details: Bassia scoparia, post-emergence, 240 h, Postemergence, read-out: Plant response rating, Kochia
How it was run: as §1

[11] = test system: pigweed (Amaranthus retroflexus); assay: Test A postemergence; details: Amaranthus retroflexus, post-emergence, 240 h, Postemergence, read-out: Plant response rating, Pigweed
How it was run: as §1

corn (Zea mays) = assay: Test A postemergence; details: Zea mays, post-emergence, 240 h, Postemergence
How it was run: as §1

[12] = test system: Galium (catchweed bedstraw, Galium aparine); assay: Test A postemergence; details: Galium, post-emergence, 240 h, Postemergence, read-out: Plant response rating, Galium
How it was run: as §1

[13] = 125 g ai/ha, visual injury after approx. 10 d, 0 to 100 scale, 0 no effect, 100 complete control
[14] = 500 g ai/ha, visual injury, 0 to 100 scale (0 no effect, 100 complete control), approx. 10 d

CSc1ccccc1NC(=O)[C@H]1C(=O)N(C)C[C@@H]1c1ccc(C(F)(F)F)cc1 [Compound 1391]
pest or weed control at 500 g/ha (Kochia (Kochia scoparia) [1]; 500 g ai/ha, preemergence): 90%
pest or weed control at 125 g/ha (Kochia (Kochia scoparia) [1]; Preemergence, 125 g ai/ha): 90%
pest or weed control at 500 g/ha ([2]; 500 g ai/ha, preemergence): 90%
pest or weed control at 125 g/ha ([2]; Preemergence, 125 g ai/ha): 90%
pest or weed control at 500 g/ha ([3]; 500 g ai/ha, preemergence): 100%
pest or weed control at 125 g/ha ([3]; Preemergence, 125 g ai/ha): 100%
pest or weed control at 500 g/ha ([4]; 500 g ai/ha, preemergence): 70%
pest or weed control at 125 g/ha ([4]; Preemergence, 125 g ai/ha): 30%
pest or weed control at 500 g/ha ([5]; 500 g ai/ha, preemergence): 90%
pest or weed control at 125 g/ha ([5]; Preemergence, 125 g ai/ha): 90%
pest or weed control at 500 g/ha ([6]; 500 g ai/ha, preemergence): 100%
pest or weed control at 125 g/ha ([6]; Preemergence, 125 g ai/ha): 90%
pest or weed control at 250 g/ha (rice (Oryra sativa)): 0%
pest or weed control at 250 g/ha [7]: 0%
pest or weed control at 250 g/ha [8]: 0%
pest or weed control at 250 g/ha [9]: 75%
pest or weed control at 125 g/ha (Kochia (Kochia scoparia) [10]; [13]): 70%
pest or weed control at 500 g/ha (Kochia (Kochia scoparia) [10]; [14]): 80%
pest or weed control at 125 g/ha [11, 13]: 70%
pest or weed control at 500 g/ha [11, 14]: 90%
Corn plant response rating (crop injury, 0 = no effect, 100 = complete kill) at 125 g/ha (corn (Zea mays); [13]): 0%
Corn plant response rating (crop injury, 0 = no effect, 100 = complete kill) at 500 g/ha (corn (Zea mays); [14]): 80%
pest or weed control at 125 g/ha [12, 13]: 70%
pest or weed control at 500 g/ha [12, 14]: 70%
